Series [1] in a line: Aqueous solubility of compound in universal buffer at pH 3 at 100 uM incubated for 1.5 hrs under shaking condition by LC-MS/MS analysis. Type of series: physicochemical.
In series [2] the target is Sigma non-opioid intracellular receptor 1 (Homo sapiens, UniProt Q99720). The experiment in a line: Displacement of […] from sigma-1 receptor (unknown origin) expressed in HEK cell membrane incubated for 2 hrs by liquid scintillation counter analysis.
A short description of series [3]: in vitro. The following applies: dog, MDCK-MDR1.
Description: Apparent permeability in dog MDCK-MDR1 cells from basal to apical side measured after 30 to 120 mins by LC-MS analysis
The nature of series [4]: Stability in human liver microsomes assessed as half life at 10 uM measured upto 120 mins by LC-MS/MS analysis. The format is ADME, Microsome.
The target in series [5] is Sodium-dependent noradrenaline transporter (Homo sapiens, UniProt P23975). The experiment in a line: Displacement of […] from NET (unknown origin) expressed in HEK cell membrane incubated for 2 hrs by liquid scintillation counter analysis.
Series [6] has as its target Glutamate [NMDA] receptor. In words: Displacement of […] from NMDA receptor (unknown origin) expressed in HEK cell membrane incubated for 2 hrs by liquid scintillation counter analysis.
Series [7] is described as follows: in vitro. Conditions: human, liver microsomes.
Series [8] in a line: Aqueous solubility of compound in universal buffer at pH 7.4 at 100 uM incubated for 1.5 hrs under shaking condition by LC-MS/MS analysis. Type of series: physicochemical.
Series [9] has as its target Sigma intracellular receptor 2 (Homo sapiens, UniProt Q5BJF2). In words: Displacement of […] from sigma-2 receptor (unknown origin) expressed in HEK cell membrane incubated for 2 hrs by liquid scintillation counter analysis.
Series [10] can be described thus: in vitro. Conditions: dog, MDCK-MDR1. This is another data set of the same source.
Description: Apparent permeability in dog MDCK-MDR1 cells from apical to basal side measured after 30 to 120 mins by LC-MS analysis
Series [11] concerns the target Sodium-dependent serotonin transporter (Homo sapiens, UniProt P31645). In words: biochemical. Type of series: cell-based, HEK.
Description: Displacement of [3H]-Citalopram from SERT receptor (unknown origin) expressed in HEK cell membrane incubated for 2 hrs by liquid scintillation counter analysis
Series [12] in a line: Efflux ratio of apparent permeability across basolateral to apical side over apical to basolateral side in dog MDCK-MDR1 cells measured after 30 to 120 mins by LC-MS analysis. The format is ADME, cell-based, Canis lupus familiaris. Conditions: time 30-120 min.
Series [13] is described as follows: Half life in Sprague-Dawley rat plasma at 2.5 mg/kg, po measured after 24 hrs by LC-MS/MS analysis. The format is ADME, organism-based.
Series [14] is described as follows: Clearance in Sprague-Dawley rat plasma at 2.5 mg/kg, po measured after 24 hrs by LC-MS/MS analysis. Type of series: ADME, organism-based.
Series [15] can be described thus: Cmax in Sprague-Dawley rat plasma at 2.5 mg/kg, po measured after 24 hrs by LC-MS/MS analysis. Type of series: ADME, organism-based. The arrangement: route oral, dose 2.5 mg/kg, time 24 hrs.
The nature of series [16]: Cmax in Sprague-Dawley rat brain at 2.5 mg/kg, po measured after 24 hrs by LC-MS/MS analysis. The arrangement: route oral, time 24 hrs, dose 2.5 mg/kg. The format is ADME, organism-based.
Series [17] in a line: Unbound brain-to-plasma concentration ratio in Sprague-Dawley rat. Type of series: ADME, cell-free. Conditions: read-out: K(p,uu,brain).
Series [18] can be described thus: AUC in Sprague-Dawley rat plasma at 2.5 mg/kg, po measured after 24 hrs by LC-MS/MS analysis. Type of series: ADME, organism-based. The arrangement: route oral, time 24 hrs, dose 2.5 mg/kg.
Series [19] in a line: AUC in Sprague-Dawley rat brain at 2.5 mg/kg, po measured after 24 hrs by LC-MS/MS analysis. Type of series: ADME, organism-based. The arrangement: route oral, time 24 hrs, dose 2.5 mg/kg.
Series [20] is described as follows: Half life in Sprague-Dawley rat brain at 2.5 mg/kg, po measured after 24 hrs by LC-MS/MS analysis. Type of series: ADME, organism-based.

Values after ≈ are worked out from the molar mass of the structure shown.

Sequence of Sodium-dependent noradrenaline transporter (P23975 whole entry): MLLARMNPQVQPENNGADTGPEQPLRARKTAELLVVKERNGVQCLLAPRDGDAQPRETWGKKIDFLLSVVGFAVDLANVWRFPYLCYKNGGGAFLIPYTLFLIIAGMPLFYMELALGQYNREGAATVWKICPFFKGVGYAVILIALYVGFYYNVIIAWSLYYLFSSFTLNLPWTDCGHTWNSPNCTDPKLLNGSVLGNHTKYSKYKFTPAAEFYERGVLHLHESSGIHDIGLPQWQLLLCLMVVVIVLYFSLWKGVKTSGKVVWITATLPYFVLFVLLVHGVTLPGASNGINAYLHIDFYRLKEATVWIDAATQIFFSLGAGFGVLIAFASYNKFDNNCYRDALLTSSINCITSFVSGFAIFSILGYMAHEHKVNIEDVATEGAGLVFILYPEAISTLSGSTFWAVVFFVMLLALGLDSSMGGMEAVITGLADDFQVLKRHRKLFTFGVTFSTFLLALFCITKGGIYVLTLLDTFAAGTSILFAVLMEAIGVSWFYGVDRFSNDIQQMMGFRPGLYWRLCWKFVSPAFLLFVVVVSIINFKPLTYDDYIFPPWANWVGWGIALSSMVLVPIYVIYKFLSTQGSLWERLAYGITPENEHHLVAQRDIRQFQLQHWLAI
Sequence of Sodium-dependent serotonin transporter (P31645 whole entry): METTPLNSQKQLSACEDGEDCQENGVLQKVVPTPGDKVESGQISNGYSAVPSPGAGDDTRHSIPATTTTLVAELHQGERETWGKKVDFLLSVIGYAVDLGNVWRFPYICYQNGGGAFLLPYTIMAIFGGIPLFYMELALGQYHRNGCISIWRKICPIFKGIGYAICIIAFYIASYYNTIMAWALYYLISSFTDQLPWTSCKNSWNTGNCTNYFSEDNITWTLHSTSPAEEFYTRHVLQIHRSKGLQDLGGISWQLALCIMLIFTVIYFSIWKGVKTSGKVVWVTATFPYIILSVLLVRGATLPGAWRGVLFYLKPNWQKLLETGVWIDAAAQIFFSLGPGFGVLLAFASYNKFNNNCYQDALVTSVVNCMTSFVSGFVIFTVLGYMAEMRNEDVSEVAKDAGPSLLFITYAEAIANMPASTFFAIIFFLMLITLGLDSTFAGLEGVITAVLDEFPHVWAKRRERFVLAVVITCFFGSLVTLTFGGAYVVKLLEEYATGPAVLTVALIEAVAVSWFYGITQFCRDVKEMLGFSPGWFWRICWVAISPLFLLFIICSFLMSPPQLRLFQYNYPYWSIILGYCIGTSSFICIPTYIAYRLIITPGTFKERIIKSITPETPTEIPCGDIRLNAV
Sequence of Sigma intracellular receptor 2 (Q5BJF2 whole entry): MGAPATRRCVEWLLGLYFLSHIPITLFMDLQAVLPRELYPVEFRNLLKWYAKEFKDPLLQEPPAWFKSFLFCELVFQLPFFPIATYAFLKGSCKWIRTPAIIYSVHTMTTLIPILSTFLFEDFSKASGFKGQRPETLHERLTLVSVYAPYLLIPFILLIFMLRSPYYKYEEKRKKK
Sequence of Sigma non-opioid intracellular receptor 1 (Q99720 whole entry): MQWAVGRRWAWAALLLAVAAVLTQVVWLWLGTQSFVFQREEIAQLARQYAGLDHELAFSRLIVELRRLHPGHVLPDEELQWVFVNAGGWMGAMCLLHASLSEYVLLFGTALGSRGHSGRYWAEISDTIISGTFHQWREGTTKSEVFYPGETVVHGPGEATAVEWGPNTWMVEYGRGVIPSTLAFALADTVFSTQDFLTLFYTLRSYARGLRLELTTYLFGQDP

For the molecule `CN1CC[C@@]23CCCC[C@@H]2[C@@H]1Cc1ccc(C(C)(F)F)cc13`, the solubility at 1.5 h, 100 µM in series [1] is 90 µM (≈ 27.5 µg/mL); in series [8], > 100 µM. Also, the Ki was 675 nM in [2]; > 10000 nM in series [5]; > 10000 nM in [6]; 826 nM in [9]; 301 nM in [11]. This molecule also came in with a Papp B→A in “in vitro [3]” of 0.833 ×10⁻⁶ cm/s. Besides, in series [4], the half-life at 10 µM worked out at 2.47 h. The molecule also yielded an intrinsic clearance (CLint scaled) at 2 h, 10 µM in the series “in vitro [7]” of 8.42 mL/min/kg. Besides, the Papp A→B in “in vitro [10]” was 0.763 ×10⁻⁶ cm/s. For the same molecule, the efflux ratio in series [12] was determined as 1.09.
Turning to `[2H]C([2H])([2H])Oc1ccc2c(c1)[C@@]13CCCC[C@@H]1[C@@H](C2)N(C([2H])([2H])[2H])CC3`, the solubility at 1.5 h, 100 µM worked out at 95.5 µM (≈ 26.5 µg/mL) in series [1] and 112 µM (≈ 31.1 µg/mL) in series [8]. In addition, the half-life in [13] is 7.07 h; in series [20], 4.9 h. Moreover, in [4], the half-life at 10 µM was determined as 4.4 h. For the same molecule, in [14], the CL/F was 1840 mL/min/kg. The CLint scaled at 2 h, 10 µM in the series “in vitro [7]” is 4.72 mL/min/kg. Also, the Cmax was found to be 5.5 ng/mL in series [15] and 53.1 ng/mL in series [16]. For the same molecule, the Kp uu at 20 µM in series [17] came out at 10.8. Moreover, the AUC at 24 h in series [18] is 15 ng·h/mL; in [19], 97.3 ng·h/mL.
Take `[2H]C([2H])([2H])N1CC[C@@]23CCCC[C@@H]2[C@@H]1Cc1ccc(C(F)(F)F)cc13`: the solubility at 1.5 h, 100 µM stood at 70 µM (≈ 21.9 µg/mL) in series [1] and 95 µM (≈ 29.7 µg/mL) in series [8]. The half-life at 10 µM in series [4] amounted to 1.34 h. The CLint scaled at 2 h, 10 µM in “in vitro [7]” was 15.4 mL/min/kg.
Take `[2H]C([2H])([2H])N1CC[C@@]23CCCC[C@@H]2[C@@H]1Cc1ccc(OC(F)F)cc13`: the solubility at 1.5 h, 100 µM in [1] turned out to be 83 µM (≈ 25.8 µg/mL); in series [8] it was 101 µM (≈ 31.4 µg/mL). In addition, the half-life at 10 µM in series [4] came out at 1.58 h. For the same molecule, the CLint scaled at 2 h, 10 µM in the series “in vitro [7]” stood at 13.2 mL/min/kg.
As to `CN1CC[C@@]23CCCC[C@@H]2[C@@H]1Cc1ccc(C(F)(F)C(F)(F)F)cc13`, the solubility at 1.5 h, 100 µM in series [1] was 77 µM (≈ 27.7 µg/mL); in [8], > 100 µM. Further, the Ki in series [2] was > 10000 nM; in series [5] it was > 10000 nM; in series [6] it was > 10000 nM; in series [9], 1400 nM; in [11], > 10000 nM. In the series “in vitro [3]”, this molecule came in with a basolateral-to-apical permeability (Papp B→A) of 0.833 ×10⁻⁶ cm/s. The half-life at 10 µM in series [4] is 1.45 h. In addition, in “in vitro [7]”, the CLint scaled at 2 h, 10 µM worked out at 14.4 mL/min/kg. Also, the Papp A→B in “in vitro [10]” worked out at 0.831 ×10⁻⁶ cm/s. Further, the efflux ratio in series [12] came out at 1.
In the case of `[2H]C([2H])([2H])N1CC[C@@]23CCCC[C@@H]2[C@@H]1Cc1ccc(C(F)(F)C(F)(F)F)cc13`, the solubility at 1.5 h, 100 µM is 70 µM (≈ 25.4 µg/mL) in series [1] and 82 µM (≈ 29.7 µg/mL) in series [8]. For the same molecule, the half-life at 10 µM in series [4] came to 2.07 h. In “in vitro [7]”, the CLint scaled at 2 h, 10 µM worked out at 10 mL/min/kg.
As to `CN1CC[C@]23CCCC[C@@H]2[C@H]1Cc1ccc(O)cc13`, the inhibition constant (Ki) is 118 nM in series [2]; > 340 nM in series [5]; 486 nM in series [6]; > 10000 nM in [9]; 401 nM in [11].
Consider `[2H]C([2H])([2H])N1CC[C@@]23CCCC[C@@H]2[C@@H]1Cc1ccc(C(C)(F)F)cc13`, for which the solubility at 1.5 h, 100 µM in [1] amounted to 67 µM (≈ 20.7 µg/mL); in series [8], 95 µM (≈ 29.3 µg/mL). For the same molecule, the half-life at 10 µM in series [4] is 5.38 h. Further, the CLint scaled at 2 h, 10 µM in the series “in vitro [7]” was determined as 5.39 mL/min/kg.

Source of the values: ChEMBL document CHEMBL5038679, “Fluoroalkylation of Dextromethorphan Improves CNS Exposure and Metabolic Stability” (ACS Med Chem Lett, 2022).
